{"source": "PubChem BioAssay AID1286", "about": "(University of Pittsburgh Molecular Library Screening Center, 2008)", "note": "Results filed as inconclusive are left out. Calls of active or inactive are those of the source. No rule for the calls is given here.", "data": [{"target": "Serine/threonine-protein kinase D1 (Homo sapiens) (UniProt Q15139)", "sequence (Q15139 whole entry, looked up)": "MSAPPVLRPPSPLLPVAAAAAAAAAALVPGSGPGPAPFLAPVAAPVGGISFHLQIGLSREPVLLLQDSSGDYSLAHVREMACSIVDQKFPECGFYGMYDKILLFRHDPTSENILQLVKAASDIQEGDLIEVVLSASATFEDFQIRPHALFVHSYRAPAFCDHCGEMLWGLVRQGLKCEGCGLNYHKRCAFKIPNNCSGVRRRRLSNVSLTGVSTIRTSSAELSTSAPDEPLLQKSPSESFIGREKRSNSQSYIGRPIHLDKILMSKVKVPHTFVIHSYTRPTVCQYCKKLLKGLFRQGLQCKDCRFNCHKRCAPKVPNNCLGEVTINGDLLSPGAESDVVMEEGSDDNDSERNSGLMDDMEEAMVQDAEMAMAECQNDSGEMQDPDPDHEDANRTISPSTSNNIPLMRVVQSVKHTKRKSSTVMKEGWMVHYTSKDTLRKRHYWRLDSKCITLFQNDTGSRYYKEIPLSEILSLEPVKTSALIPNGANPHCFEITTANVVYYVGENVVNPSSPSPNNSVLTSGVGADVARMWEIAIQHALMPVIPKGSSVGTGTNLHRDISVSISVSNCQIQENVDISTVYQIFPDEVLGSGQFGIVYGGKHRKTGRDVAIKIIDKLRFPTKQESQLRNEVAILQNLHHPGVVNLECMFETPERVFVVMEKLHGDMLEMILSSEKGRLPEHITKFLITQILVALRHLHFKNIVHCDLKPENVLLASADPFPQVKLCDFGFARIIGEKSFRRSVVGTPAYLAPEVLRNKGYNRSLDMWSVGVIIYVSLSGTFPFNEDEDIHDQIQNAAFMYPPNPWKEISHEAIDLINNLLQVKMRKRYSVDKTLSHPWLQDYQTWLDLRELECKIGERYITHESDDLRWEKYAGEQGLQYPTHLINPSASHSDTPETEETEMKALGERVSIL", "assay": "inhibitors of human PKD1 kinase, confirmation, biochemical, fluorescence polarization, 140K library hits, repeat (AID 1286)", "conditions": "at 10 µM, hits give high values", "values": [{"smiles": "CC(=O)Nc1ccc2c(c1)c1ccccc1n2C(C)=O", "inhibition": "14.5% (inactive)"}, {"smiles": "Cc1occc1C(=O)NC(C)CCc1ccccc1", "note": "(stereo unspecified)", "inhibition": "-0.529% (inactive)"}, {"smiles": "CCn1c(CSc2ncccn2)nnc1SCC(=O)N1CCc2ccccc21", "inhibition": "-1.28% (inactive)"}, {"smiles": "CCCCn1c(=O)[nH]c2nc3cc(N)ccc3nc2c1=O", "inhibition": "31.1% (inactive)"}, {"smiles": "CCCNC(=O)CN(c1ccc(F)cc1)S(=O)(=O)c1ccc2c(c1)OCCO2", "inhibition": "-8.66% (inactive)"}, {"smiles": "NC(N)=NC(=O)c1nc(Cl)c(N)nc1N", "inhibition": "58.6%"}, {"smiles": "O=C(Nc1ccccc1)ON=C1c2ccccc2-c2ccccc21", "inhibition": "17.2% (inactive)"}, {"smiles": "COC(=O)c1cccc2c1-c1ccccc1/C2=N/O", "inhibition": "19.8% (inactive)"}, {"smiles": "COc1ccccc1C(=O)NN1C(=O)C2C3C=CC(O3)C2C1=O", "note": "(stereo unspecified)", "inhibition": "-0.477% (inactive)"}, {"smiles": "COc1ccc(-c2cnnc(N/N=C/c3ccc(O)c(O)c3)n2)cc1", "inhibition": "3.96% (inactive)"}, {"smiles": "Cc1cc2nc3c(=O)n(C4CCCCC4)c(=O)[nH]c3nc2cc1N", "inhibition": "21.6% (inactive)"}, {"smiles": "COCC(C)n1c(C)cc(C(=O)COC(=O)c2nc3nc(C)cc(C)n3n2)c1C", "note": "(stereo unspecified)", "inhibition": "-2.8% (inactive)"}, {"smiles": "CN(C)c1ccc(/C=C2\\SC(=S)N(Nc3ncc(C(F)(F)F)cc3Cl)C2=O)cc1", "inhibition": "4.05% (inactive)"}, {"smiles": "CCC1=NNc2cccc3c(OC)ccc1c23", "inhibition": "89.7%"}, {"smiles": "Cc1c(C(=O)N/N=C/c2ccc(O)c(Br)c2)sc(N)c1C#N", "inhibition": "44.5% (inactive)"}, {"smiles": "CC(OC(=O)c1ccc(NS(=O)(=O)c2cccs2)cc1)C(=O)N(C)C1CCCCC1", "note": "(stereo unspecified)", "inhibition": "-4.35% (inactive)"}, {"smiles": "Cn1c(OCc2cccnc2)nc2c1c(=O)n(Cc1ccc(Br)cc1)c(=O)n2C", "inhibition": "-0.468% (inactive)"}, {"smiles": "NC(=O)c1cn(C2OC(CO)C(O)C2O)c2ncnc(N)c12", "note": "(stereo unspecified)", "inhibition": "90.3%"}, {"smiles": "O=C1CC(N2CCN(c3ccccc3Cl)CC2)C(=O)N1c1ccc(F)cc1", "note": "(stereo unspecified)", "inhibition": "-3.22% (inactive)"}, {"smiles": "COc1ccc(S(=O)(=O)N2CCC(n3cnc4cc(C(F)(F)F)ccc43)CC2)cc1", "inhibition": "20.8% (inactive)"}, {"smiles": "COc1cc2c(cc1OC)-c1c(OC)c(OC)c(OC)c3ccnc(c13)C2=O", "inhibition": "10.4% (inactive)"}, {"smiles": "CCOC(=O)N1CCC(NS(=O)(=O)c2cc(Br)cc3c2N(C(=O)CC)CC3)CC1", "inhibition": "-5.57% (inactive)"}, {"smiles": "COC(=O)c1ccccc1OCC(=O)NC1CCCCC1", "inhibition": "-3.26% (inactive)"}, {"smiles": "O=C(c1cc(-c2ccccc2)nc2ccccc12)N1CCN(c2ccccn2)CC1", "inhibition": "0.468% (inactive)"}, {"smiles": "Cc1cc(NCCCN)nc(-c2ccccc2O)n1", "inhibition": "59.5%"}, {"smiles": "CCOC(=O)c1[nH]c2cc(OC)c(OC)cc2c1NC(=O)CN1CCN(C)CC1", "inhibition": "3.12% (inactive)"}, {"smiles": "CC(C)CCN1CN(S(=O)(=O)c2cccs2)c2nc3ccccc3nc21", "inhibition": "-0.214% (inactive)"}, {"smiles": "CS(=O)(=O)N1CCN(c2ccc(NC(=O)c3ccc(Br)o3)cc2)CC1", "inhibition": "-7.85% (inactive)"}, {"smiles": "COc1cc(C2=NOC(C(=O)NCc3ccco3)C2)cc(OC)c1OC", "note": "(stereo unspecified)", "inhibition": "-3.78% (inactive)"}, {"smiles": "COc1ccc2nc3sc(C(=O)NCCCN4CCc5ccccc5C4)cc3cc2c1", "inhibition": "7.3% (inactive)"}, {"smiles": "CC(=O)Oc1cc(OC(C)=O)c2c(C)cc(=O)oc2c1", "inhibition": "68.1%"}, {"smiles": "COc1ccc(Nc2cc(C)nc(-n3nc(C)cc3C)n2)cc1", "inhibition": "3.67% (inactive)"}, {"smiles": "O=C1NCCCc2c1oc1ccc(O)cc21", "inhibition": "96.2%"}, {"smiles": "c1ccc(-c2n[nH]c3ccccc23)cc1", "inhibition": "11.3% (inactive)"}, {"smiles": "O=C1CCCc2c1cc(C(=O)NCc1ccco1)c(=O)n2-c1ccccc1", "inhibition": "-5.46% (inactive)"}, {"smiles": "CS(=O)(=O)N1CCN(c2ccccc2NC(=O)c2ccc(Br)o2)CC1", "inhibition": "96.2%"}, {"smiles": "O=C(Nc1ccccc1Cl)ON=C1c2ccccc2-c2ccccc21", "inhibition": "14.4% (inactive)"}, {"smiles": "O=C(Nc1ccc(CN2CCOCC2)cc1)c1ccc(-c2cccc(Cl)c2)o1", "inhibition": "52.6%"}, {"smiles": "Nc1nc2ccc([N+](=O)[O-])c(N)c2s1", "inhibition": "69.9%"}, {"smiles": "CCOC(=O)N1CCC(N2CCN(S(=O)(=O)CC)CC2)CC1", "inhibition": "-3.7% (inactive)"}, {"smiles": "CCOC(=O)N1CCN(c2cc(NCCC(=O)O)c3c4c(onc24)-c2ccccc2C3=O)CC1", "inhibition": "3.06% (inactive)"}, {"smiles": "Cc1ccc(C(=O)Cn2c(NCCO)nc3ccccc32)cc1", "inhibition": "-5.32% (inactive)"}, {"smiles": "O=C(O)C1CCN(c2ncccn2)CC1", "inhibition": "-5.12% (inactive)"}, {"smiles": "Nc1nc2ccccc2n1/N=C/c1cccnc1", "inhibition": "36.4% (inactive)"}, {"smiles": "Cc1ccc(NC(=O)CNc2ccc(Cl)cc2F)cc1", "inhibition": "0.85% (inactive)"}, {"smiles": "O=C(Nc1ccsc1C(=O)NC1CC1)c1ccccc1", "inhibition": "9.43% (inactive)"}, {"smiles": "CC1CCCC(C)N1C(=O)Cn1cc(/C=C2/C(=O)Nc3ccccc32)c2ccccc21", "note": "(stereo unspecified)", "inhibition": "2.88% (inactive)"}, {"smiles": "Cc1c(N/N=C(\\C#N)C(=O)c2ccccc2)c(=O)n(-c2ccccc2)n1C", "inhibition": "12.8% (inactive)"}, {"smiles": "O=C(Nc1ccc(Cl)cc1)OCc1cn(-c2ccc(Cl)cc2)nn1", "inhibition": "-2.52% (inactive)"}, {"smiles": "Cn1c(=O)oc2cc(S(=O)(=O)N3CCN(Cc4ccc5c(c4)OCO5)CC3)ccc21", "inhibition": "-1.91% (inactive)"}, {"smiles": "O=C1CC(N2CCN(c3ccccc3Cl)CC2)C(=O)N1c1cccc(F)c1", "note": "(stereo unspecified)", "inhibition": "-6.73% (inactive)"}, {"smiles": "Cc1c(N/N=C(\\C#N)C(=O)c2ccc(Cl)cc2)c(=O)n(-c2ccccc2)n1C", "inhibition": "18% (inactive)"}, {"smiles": "Cc1cc(Nc2cccc(F)c2)nc(NCc2ccccc2)n1", "inhibition": "1.99% (inactive)"}, {"smiles": "Cc1ccc(NC(=O)C2CCCN(S(=O)(=O)c3c(C)noc3C)C2)c(C)c1", "note": "(stereo unspecified)", "inhibition": "-2.05% (inactive)"}, {"smiles": "Cc1cc(N=CC2=C(O)CC(C)(C)CC2=O)no1", "inhibition": "-1.85% (inactive)"}, {"smiles": "O=C(Nc1cccc([N+](=O)[O-])c1)C12CC3CC(C1)CC(n1cnc([N+](=O)[O-])n1)(C3)C2", "inhibition": "-4.73% (inactive)"}, {"smiles": "Cc1c(C(=O)NCc2cccnc2)sc2nc(-c3ccc(F)cc3)cn12", "inhibition": "-3.04% (inactive)"}, {"smiles": "C=CCn1c(SC(C)C(=O)NCc2ccc3c(c2)OCO3)nnc1C1CCCCC1", "note": "(stereo unspecified)", "inhibition": "-1.58% (inactive)"}, {"smiles": "Cc1ccc(C(=O)NNC2=Nc3cccc4cccc2c34)cc1", "inhibition": "6.45% (inactive)"}, {"smiles": "Cn1c(=O)[nH]c(=O)c2c1nc(NC1CCCCC1)n2CC(=O)NC1CCCCC1", "inhibition": "-11.5% (inactive)"}, {"smiles": "COc1ccc(C2C(C(=O)c3cccs3)=C(O)C(=O)N2c2nncs2)cc1", "note": "(stereo unspecified)", "inhibition": "35.1% (inactive)"}, {"smiles": "CCOC(=O)c1cccc(NC(=O)CCS(=O)(=O)c2cccc3nsnc23)c1", "inhibition": "28.8% (inactive)"}, {"smiles": "Cc1[nH]nc2c1-c1nc3ccccc3nc1C(C)(C)C2", "inhibition": "40% (inactive)"}, {"smiles": "Clc1cncc(Cl)c1N/N=C/c1ccncc1", "inhibition": "77.4%"}, {"smiles": "Nc1nc2ccccc2n1/N=C/c1ccc([N+](=O)[O-])s1", "inhibition": "34.7% (inactive)"}, {"smiles": "CN1CCN(c2ccccc2NC(=O)c2ccc(-c3cccc([N+](=O)[O-])c3)o2)CC1", "inhibition": "7.36% (inactive)"}, {"smiles": "CCN(CC)c1ccc(NC(=O)COc2ccccc2C#N)cc1S(=O)(=O)Nc1ccc(OC)cc1", "inhibition": "-2.22% (inactive)"}, {"smiles": "O=C1Nc2ccccc2/C1=C/c1cnc[nH]1", "inhibition": "28.3% (inactive)"}, {"smiles": "COc1ccccc1/C=C1\\SC(=S)N(CCC(=O)NC2=NCCS2)C1=O", "inhibition": "-0.701% (inactive)"}, {"smiles": "CCC(=O)Nc1c2c(nn1-c1ccccc1C)CSC2", "inhibition": "58.1%"}, {"smiles": "NC(=NCCc1c[nH]c2ccccc12)NS(=O)(=O)c1cc(F)ccc1F", "inhibition": "2.31% (inactive)"}, {"smiles": "Clc1ccc(Nc2ccc(-n3ccnc3)nn2)cc1Cl", "inhibition": "-1.8% (inactive)"}, {"smiles": "O=C(NCCOC(=O)c1ccc(C(=O)OCCNC(=O)c2cccnc2)s1)c1cccnc1", "inhibition": "-5.26% (inactive)"}, {"smiles": "Cn1c(=O)c(NCCO)c2c3c(cccc31)C(=O)c1ccccc1-2", "inhibition": "95.8%"}, {"smiles": "Cc1nn(C)c(C)c1N1C(=O)c2cccc3c(N)ccc(c23)C1=O", "inhibition": "46.3% (inactive)"}, {"smiles": "O=C1c2ccccc2-c2onc3ccc(NCc4ccco4)c1c23", "inhibition": "32.1% (inactive)"}, {"smiles": "O=C(CN1CCCC1)Nc1c2c(nc3ccccc13)N(Cc1ccccc1)CC2", "inhibition": "-4.44% (inactive)"}, {"smiles": "CN(C)CCOc1ccc2c(c1)Sc1ccccc1CC2=O", "inhibition": "8.37% (inactive)"}, {"smiles": "Nc1nnc(SCCCC(=O)c2ccc(F)cc2)s1", "inhibition": "26.1% (inactive)"}, {"smiles": "CCOc1cccc(C2C(C(=O)c3ccc(C)o3)=C(O)C(=O)N2c2nccs2)c1", "note": "(stereo unspecified)", "inhibition": "73.4%"}, {"smiles": "CN1CCN(c2cccc3c2C(=O)c2ccccc2C3=O)CC1", "inhibition": "34.4% (inactive)"}]}]}
